Where a name gives a salt, the structure may show the parent alone.
Experiments:
SH-SY5Y cells [1] = assay: Neurite outgrowth (Outgrowth Fold Change) in undifferentiated SH-SY5Y cells; type: cell-based, human; details: for neurite outgrowth / differentiation over the concentration range: DFO compared with ApoTf; for neurite outgrowth or differentiation: FIG. 5; for neurogenesis / differentiation (neurite outgrowth): all proteins 0.2 mg/mL
Procedure: (§1) Undifferentiated SH-SY5Y cells were seeded into 96 well clear bottom plates in media containing 0.1% FBS. A serum-free base media was utilized as recommended by the supplier for SH-SY5Y cells (Sigma, Cat #94030304-1VL). Twenty-four hours after seeding cells, a 3× stock solution of ApoTf, final concentrations indicated on the x-axis, in serum free base media was added to the cells. ApoTf was obtained and purified from pooled human plasma and dosed at a final concentration of 0.2 mg/mL. Cells were allowed to differentiate for 6 days. Neurite growth was assessed by imaging and image analysis. At the time of analysis, a 10× solution of Tubulin Tracker (Molecular Probes, T34075) and Hoechst 33342 (Molecular Probes #H3570) nuclear stain was prepared.
Briefly, Tubulin Tracker dissolved in DMSO was diluted 1:1 with Pluronic F-127 and further diluted into HBSS to generate a 10× solution. Hoechst 33342 was added to the HBSS-Tubulin Tracker solution at 10 μg/mL to generate a 10× nuclear stain. The 10× staining solution (10 μL) was added directly to treated assay wells and incubated at 37° C. for 30 minutes. Following incubation, 110 μL of 0.4% Trypan Blue was added directly to assay wells and imaged on a Molecular Devices Nano imaging instrument. Nine images/well were acquired in the blue (Nuclei) and green (Tubulin) fluorescent channels for each image.
(§2) After obtaining images, the MetaExpress Neurite Outgrowth analysis module (Molecular Devices) was used to identify cells, cell bodies, and quantify neurites. The total number of neurite branches were divided by the total number of cells imaged to account for different numbers of cells in each test well. The Outgrowth Fold Change was determined by setting the untreated control cells to a value of 1 with all other treatments shown relative to untreated control.

HIF-1α = details: undifferentiated SH-SY5Y; US2016008437; cited from earlier work
SH-SY5Y cells [2] = assay: Cell number / proliferation of SH-SY5Y cells; type: cell-based, human
Procedure: as §1, with “ApoTf was obtained and purified from pooled human plasma and dosed at a final concentration of 0.2 mg/mL.” left out
Briefly, Tubulin Tracker dissolved in DMSO was diluted 1:1 with Pluronic F-127 and further diluted into HBSS to generate a 10× solution. Hoechst 33342 was added to the HBSS-Tubulin Tracker solution at 10 μg/mL to generate a 10× nuclear stain. The 10× staining solution (10 μL) was added directly to treated assay wells and incubated at 37° C. for 30 minutes. […]
as §2, with “The total number of neurite branches were divided by the total number of cells imaged to account for different numbers of cells in each test well.” left out

[3] = Iron saturation of transferrin samples by ICP-AES; type: physicochemical
Procedure: Protein purity was determined by SDS-PAGE. Iron saturation levels were determined using ICP-AES in accordance with the procedures outlined in Manley et al., J Biol Inorg Chem (2009) 14:61-74, the contents of which are incorporated herein by reference.

[4] = tested on: primary human brain cortex-derived neural progenitor cells; assay: Differentiation of primary human neural progenitor cells to neurons and astrocytes; type: cell-based; details: ApoTf 0.8 mg/mL, 72 hours
Procedure: Neural progenitor cells maintained as neurospheres were obtained from Lonza (PT-2599). Cells were thawed from a frozen vial of neurospheres and cultured in Human NeuroCult™ NS-A Complete Proliferation media (Stemcell Technologies) for 2 weeks. Neurospheres were dissociated to single cells and plated in Laminin coated wells of assay plates. The neural progenitor cells were seeded in NeuroCult™ NS-A Basal media containing 1/10th concentration of the recommended proliferation supplements, in the absence or presence of ApoTf (0.8 mg/mL) for 72 hours. At the time of analysis, cells were fixed with paraformaldehyde, stained for β-III-tubulin (R&D Systems, MAB1195) and GFAP (Invitrogen, PA3-16727), and imaged on a Molecular Devices Nano imaging instrument. Image analysis was performed by assessing the relative numbers of cells staining positive for β-III-tubulin or GFAP. Values for the indicated conditions are shown with standard deviations as “% β-III-Tubulin Positive” cells (FIG. 2A) or “% GFAP Positive” cells (FIG. 2B).

SH-SY5Y cells [5] = assay: β-III-tubulin staining intensity in SH-SY5Y cells; type: cell-based, human; details: FIG. 1D
Procedure: In this experiment, the SH-SY5Y cells were differentiated as described supra. At the time of analysis, cells were fixed with paraformaldehyde, stained for β-III-tubulin (R&D Systems, MAB1195), and imaged on a Molecular Devices Nano imaging instrument. Image analysis was performed by assessing the fluorescent intensity of cells stained with β-III-tubulin. Background from secondary antibody alone was subtracted from all values. Values are shown with standard deviations as “β-III-Tubulin Staining Intensity” for the indicated conditions.

[6] = tested on: MPTP-induced Parkinson's Disease in mice; assay: Kinematic gait analysis in MPTP-induced Parkinson's Disease mice; type: in vivo, C57BI/6J mice; details: ApoTf 350 mg/kg i.p. once a day, days 1-7; analysis on day 7; n=15
Procedure: Animal experiments were performed at Charles River Laboratories (Finland), as specified in the license authorized by the national Animal Experiment Board of Finland and according to the National Institutes of Health (Bethesda, Md., USA) guidelines for the care and use of laboratory animals. Eight to twelve-week-old, C57BI/6J mice were housed at a standard temperature (22±1° C.) and in a light-controlled environment (lights on from 7 am to 8 pm) with ad libitum access to food and water.
Solutions of MPTP were prepared by dissolving MPTP hydrochloride in sterile saline at 2.42 mg/mL; corresponding to 2.0 mg/mL of active compound. To induce Parkinson's Disease, the MPTP was given by intraperitoneal injection twice a day at 20 mg/kg. […]
The captured videos of each mouse were first converted to the software-readable format. […] Gait pattern and movement analysis assessed 100 different parameters, including but not limited to stride time, swing time during a stride, speed, step width, stance and interlimb coordination. The data was analysed by using principal component analysis (PCA). The overall gait analysis was based on the PCA of all parameters for each mouse, with the obtained value showing the overall differences, measured as a “distance”, between control mice and MPTP, or MPTP plus ApoTf mice. […]

[7] = FIG. 1C, 0.1 mg/mL ApoTf vs untreated control

CC(=O)N(O)CCCCCNC(=O)CCC(=O)N(O)CCCCCNC(=O)CCC(=O)N(O)CCCCCN [DFO, Deferoxamine mesylate, reference compound]
concentration of maximal neurite outgrowth (SH-SY5Y cells [1]; FIG. 3A): 1 to 3 µM
neurite outgrowth / differentiation over the concentration range (SH-SY5Y cells [1]; FIG. 3A): little neurite formation beyond that concentration

O=C(O)CNC(=O)c1c(O)c2ccccc2n(Cc2ccccc2)c1=O [IOX2, N-[[1,2-Dihydro-4-hydroxy-2-oxo-1-(phenylmethyl)-3-quinolinyl]carbonyl]-glycine, reference compound]
neurite outgrowth or differentiation (SH-SY5Y cells [1]; 4 μM IOX2): no effect was observable
neurite outgrowth or differentiation (SH-SY5Y cells [1]; IOX2-treated cells): no neurite outgrowth or differentiation was observed
concentration inducing up-regulation of HIF-1α (HIF-1α): 1 µM

C[C@@H](N)[C@H]1CC[C@H](C(=O)Nc2ccncc2)CC1.Cl.Cl [Y-27632, trans-4-[(1R)-1-Aminoethyl]-N-4-pyridinylcyclohexanecarboxamide dihydrochloride, reference compound]
neurogenic effect (neurite outgrowth), alone (SH-SY5Y cells [1]; FIG. 8, Y-27632 50 μM): strongly neurogenic
neurogenic effect (neurite outgrowth), in the presence of ApoTf (SH-SY5Y cells [1]; FIG. 8, Y-27632 50 μM plus ApoTf 0.1 mg/mL): synergistic showing an effect beyond that exhibited by either molecule alone

ApoTf: iron-free form of transferrin protein, purified from pooled human plasma
cell numbers (cell proliferation) (SH-SY5Y cells [2]; FIG. 1B, up to 0.8 mg/mL apo-transferrin): concentration dependent increase in cell numbers
cell proliferation (nuclear staining) (SH-SY5Y cells [2]; [7]): profound effect on promoting cell proliferation
Iron Saturation (%) [3]: < 0.3%
neurite outgrowth (SH-SY5Y cells [1]; FIG. 1A, ApoTf up to 0.8 mg/mL, 6 days): induce neurite outgrowth in a dose dependent manner
neurite/tubulin outgrowth (tubulin staining) (SH-SY5Y cells [1]; [7]): promoting induction of neurite/tubulin outgrowth
neurite outgrowth / differentiation over the concentration range (SH-SY5Y cells [1]; FIG. 3A): continues to increase differentiation even up to 9.9 μM
neurogenesis / differentiation (neurite outgrowth) (SH-SY5Y cells [1]; FIG. 3B): did induce neurogenesis
differentiation (neurite outgrowth), factor combined with ApoTf (SH-SY5Y cells [1]; FIGS. 7A-7D, ApoTf 0.1 mg/mL plus neurotrophic factor): synergistic effect with other neurotrophic factors and peptides
% β-III-tubulin positive cells (neurons) ([4]; FIG. 2A): dramatically increases the percentage of cells differentiated to neurons
% GFAP positive cells (astrocytes) ([4]; FIG. 2B): dramatically increases
β-III-Tubulin Staining Intensity (SH-SY5Y cells [5]): caused an increase in β-III-tubulin protein
movement and gait (Distance from Control, PCA) [6]: significantly ameliorated

ApoTransferrin A: apo-transferrin sample, Grifols, prepared in house
Iron Saturation (%) [3]: 0.27%

ApoTransferrin B: apo-transferrin sample, Grifols, prepared in house
Iron Saturation (%) [3]: 0.59%

ApoTransferrin C: apo-transferrin sample, Grifols, prepared in house
Iron Saturation (%) [3]: 0.24%

HoloTf: iron-saturated form of transferrin, purified from pooled human plasma [reference compound]
Iron Saturation (%) [3]: 100%
neurogenesis / differentiation (neurite outgrowth) (SH-SY5Y cells [1]; FIG. 4): unable to induce differentiation

recombinant ApoTf: recombinant wild-type human transferrin, SEQ ID NO: 1, expressed in 293-6E cells
neurogenesis / differentiation (neurite outgrowth) (SH-SY5Y cells [1]; FIG. 3B): did induce neurogenesis

Reference: patent US20230263863A1, “COMPOSITIONS HAVING NEUROREGENERATIVE APPLICATIONS” (GRIFOLS WORLDWIDE OPERATIONS LIMITED, priority 2020, published 2023)
